Assay [1] concerns the target T1, Human immunodeficiency virus type 1 integrase (Human immunodeficiency virus 1, UniProt Q7ZJM1). As to the kind of experiment: Inhibition of HIV-1 integrase enzyme.
Assay [2] concerns the target T1, Human immunodeficiency virus type 1 integrase. Nature of the assay: Inhibition of HIV-1 integrase enzyme by 3'-processing method.
Assay [3] has the same target. Nature of the assay: Inhibition of HIV-1 integrase enzyme by 3'-processing method (experiment 2).
Assay [4] has the same target. As to the kind of experiment: Inhibition of HIV-1 integrase enzyme by integration method (experiment 1).
Assay [5] has the same target. Nature of the assay: Inhibition of HIV-1 integrase enzyme by 3'-processing method (experiment 1).
The target is the same in assay [6]. Nature of the assay: Inhibition of HIV-1 integrase enzyme by integration method (experiment 2).
The target is the same in assay [7]. As to the kind of experiment: Inhibition of HIV-1 integrase enzyme by integration method.

Some results are limits rather than exact numbers.

T1 sequence (Q7ZJM1 whole entry): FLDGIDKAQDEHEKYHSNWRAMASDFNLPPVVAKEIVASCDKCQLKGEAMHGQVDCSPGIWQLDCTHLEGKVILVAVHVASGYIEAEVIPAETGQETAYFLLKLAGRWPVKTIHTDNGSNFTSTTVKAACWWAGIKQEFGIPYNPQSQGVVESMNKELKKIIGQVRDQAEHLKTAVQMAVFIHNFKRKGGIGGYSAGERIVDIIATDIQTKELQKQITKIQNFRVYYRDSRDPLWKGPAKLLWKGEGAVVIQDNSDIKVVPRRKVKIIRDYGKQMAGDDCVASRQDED

Regarding `Nc1ccccc1C(=O)NNC(=O)c1ccccc1O`, the half-inhibitory concentration (IC50) in assay [1] and in assay [2] was above 100 µM throughout.

Consider `CC(=O)NNC(=O)c1ccccc1O`, for which the half-maximal inhibitory concentration (IC50) in assay [1] and in assay [2] was above 100 µM throughout.

In the case of `O=C(NNCc1ccccc1O)c1ccccc1O`, the values for the half-maximal inhibitory concentration (IC50) in assay [1] and in assay [2] were 5.2 µM and 6.7 µM, respectively.

As for `NNC(=O)c1ccccc1O`, the IC50 is 114 µM in assay [3], 33 µM in assay [4], 46 µM in assay [5] and 43 µM in assay [6].

Turning to `Nc1ccccc1C(=O)NNC(=O)c1ccccc1N`, the IC50 in assay [1] and in assay [2] was above 100 µM each time.

In the case of `NNC(=O)c1ccccc1S`, the IC50 amounted to 79.6 µM in assay [3], 57.5 µM in assay [4], 70 µM in assay [5] and 50 µM in assay [6].

`NC(=O)c1ccccc1O` [SALICYLAMIDE]: the IC50 in assay [1] and in assay [2] was above 100 µM throughout.

Turning to `O=C(NNC(=O)c1ccccc1O)c1ccccc1`, the half-maximal inhibitory concentration (IC50) in assay [1] and in assay [2] was above 100 µM each time.

For `O=C(NNC(=O)c1ccccc1O)c1ccccc1O`, the IC50 in assay [1] came to 0.73 µM; in assay [2] it was 2.07 µM.

Take `O=C(NNC(=O)c1ccccc1)c1ccccc1`: the IC50 in assay [1] and in assay [2] was above 100 µM in each case.

Turning to `NN(CC(O)COc1ccccc1)C(=O)c1ccccc1O` (stereo not given), the IC50 in assay [1] and in assay [2] was above 200 µM each time.

Turning to `O=C(NNC(=O)c1ccccn1)c1ccccn1`, the half-maximal inhibitory concentration (IC50) in assay [1] and in assay [2] was above 100 µM in each case.

As to `O=C(NCCCNC(=O)c1ccccc1O)c1ccccc1O`, the half-inhibitory concentration (IC50) in assay [1] and in assay [2] was above 200 µM each time.

Regarding `O=C(NNC(=O)c1ccccc1S)c1ccccc1O`, the IC50 was found to be 5.8 µM in assay [1] and 9.1 µM in assay [2].

As for `O=C(N/N=C/c1ccccc1O)c1ccccc1O`, the concentration for half-maximal inhibition (IC50) in assay [1] and in assay [2] was above 100 µM throughout.

Turning to `O=C(NNC(=O)c1cc2ccccc2cc1O)c1ccccc1O`, the 50% inhibitory concentration (IC50) is 1.1 µM in assay [1] and 2.3 µM in assay [2].

As to `O=C(NNCC(O)COc1ccccc1)c1ccccc1O` (stereo not given), the IC50 in assay [2] and in assay [7] was above 200 µM in each case.

In the case of `NNC(=O)c1ccccc1N`, the 50% inhibitory concentration (IC50) in assay [1] and in assay [2] was above 100 µM each time.

The values above are taken from ChEMBL document CHEMBL1130409, “Hydrazide-containing inhibitors of HIV-1 integrase” (J Med Chem, 1997).
